The target of one assay is T1, β(1,4)-Gal-T1(Y289L) (Bos taurus, UniProt P08037, I205M/L206V/P187L/V158I/Y289L).
T1 construct: made in house; host or cells: E. coli
T1 sequence (P08037 1-402 V158I/P187L/I205M/L206V/Y289L): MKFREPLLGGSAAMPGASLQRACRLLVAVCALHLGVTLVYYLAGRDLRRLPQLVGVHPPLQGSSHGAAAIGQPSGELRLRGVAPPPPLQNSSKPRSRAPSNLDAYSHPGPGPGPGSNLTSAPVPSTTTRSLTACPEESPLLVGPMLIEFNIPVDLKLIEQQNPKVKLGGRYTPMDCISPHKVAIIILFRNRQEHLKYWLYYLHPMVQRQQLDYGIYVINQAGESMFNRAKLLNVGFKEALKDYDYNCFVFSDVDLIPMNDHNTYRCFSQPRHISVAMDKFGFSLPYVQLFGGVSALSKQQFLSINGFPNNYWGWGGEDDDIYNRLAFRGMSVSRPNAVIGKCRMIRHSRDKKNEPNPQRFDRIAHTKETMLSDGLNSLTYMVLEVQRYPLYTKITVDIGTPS
The assay can be described thus: Glycosyltransfer of UDP-galactosamine derivatives to trimmed trastuzumab with Gal-T1(Y289L) expressed in E. coli, mass spectral analysis. It is filed as biochemical, bovine. To be noted: trimmed trastuzumab 10 mg/mL, pH 8.0, 30° C. overnight, reduced sample. How it is done:
General Protocol for Glycosyltransfer of Galactose Derivative UDP-GalNAz 21-24 with Gal-T1(Y289L) (Expressed in E. coli).
Enzymatic introduction of UDP-Gal derivatives 21-24 onto deglycosylated trastuzumab was effected with a mutant of bovine β(1,4)-galactosyltransferase [β(1,4)-Gal-T1(Y289L)] (expressed in E. coli). The deglycosylated trastuzumab (10 mg/mL) was incubated with the appropriate UDP-galactose derivative (0.4 mM) and β(1,4)-Gal-T1(Y289L) (1 mg/mL) in 10 mM MnCl2 and 25 mM Tris-HCl pH 8.0 for 16 hours at 30° C.
Next, the functionalized trastuzumab was incubated with protein A agarose (40 μL per mg IgG) for 2 hours at 4° C. The protein A agarose was washed three times with PBS and the IgG was eluted with 100 mM glycine-HCl pH 2.7. The eluted IgG was neutralized with 1 M Tris-HCl pH 8.0 and concentrated and washed with PBS using an Amicon Ultra-0.5, Ultracel-10 Membrane (Millipore) to a concentration of 15-20 mg/mL.
Trimmed trastuzumab (10 mg/mL, 3.3 nmol), obtained by Endo S treatment of trastuzumab, was incubated with UDP-galactosamine variant 21 (2.5 mM) and β(1,4)-Gal-T1(Y289L) (0.68 mg/mL, 45 μL) in 10 mM MnCl2 and 25 mM Tris-HCl pH 8.0 at 30° C. overnight.
Trimmed trastuzumab (10 mg/mL, 1.3 nmol), obtained by Endo S treatment of trastuzumab, was incubated with UDP-galactosamine variant 22 (4 mM) and β(1,4)-Gal-T1(Y289L) (1.4 mg/mL, 10 μL) in 10 mM MnCl2 and 25 mM Tris-HCl pH 8.0 at 30° C. overnight. Mass spectral analysis of the reduced sample indicated the formation of the product (49750.9 Da, approximately 80% of total heavy chain), resulting from galactosamide furan-2-carboxyl acid transfer to core GlcNAc(Fuc) substituted trastuzumab heavy chain as shown in FIG. 9.
Trimmed trastuzumab (10 mg/mL, 6.6 nmol), obtained by Endo S treatment of trastuzumab, was incubated with the 4-azido-3,5-difluorobenzoyl derivative of UDP-galactosamine (23, 7 mM) and β(1,4)-Gal-T1(Y289L) (2 mg/mL) in 10 mM MnCl2 and 25 mM Tris-HCl pH 8.0 at 30° C. overnight. Mass spectral analysis of the reduced sample indicated the formation of a one major product (49813 Da, approximately 90% of total heavy chain), resulting from transfer of 23 to core GlcNAc(Fuc)-substituted trastuzumab heavy chain.
Trimmed trastuzumab (10 mg/mL, 1.3 nmol), obtained by Endo S treatment of trastuzumab, was incubated with UDP-galactosamine variant 24 (4 mM) and (3(1,4)-Gal-T1(Y289L) (1.4 mg/mL, 10 μL) in 10 mM MnCl2 and 25 mM Tris-HCl pH 8.0 at 30° C. overnight.

A further assay addresses T2, Gal-T1(Y289M,C342T) (Bos taurus, UniProt P08037, C342T/Y289M).
T2 construct: host or cells: CHO K1
T2 sequence (P08037 74-402 V158I/P187L/I205M/L206V/Y289M/C342T): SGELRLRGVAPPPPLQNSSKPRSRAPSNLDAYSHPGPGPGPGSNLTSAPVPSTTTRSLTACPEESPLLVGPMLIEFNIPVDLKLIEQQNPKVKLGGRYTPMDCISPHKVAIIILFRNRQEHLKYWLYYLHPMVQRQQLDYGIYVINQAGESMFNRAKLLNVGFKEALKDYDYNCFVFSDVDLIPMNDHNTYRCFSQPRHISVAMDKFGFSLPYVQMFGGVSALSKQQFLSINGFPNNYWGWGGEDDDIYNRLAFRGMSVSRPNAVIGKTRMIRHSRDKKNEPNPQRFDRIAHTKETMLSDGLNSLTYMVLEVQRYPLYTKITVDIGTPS
The assay can be described thus: Glycosyltransfer to trimmed trastuzumab with Gal-T1(Y289M,C342T) expressed in CHO. The following applies: trimmed trastuzumab 10 mg/mL; UDP derivative 5 mM; enzyme 1.0 mg/mL; pH 8.0, 30° C. overnight. It is filed as biochemical, bovine. How it is done: (§1) A solution of 20 μg (modified) IgG was incubated for 1 hour at 37° C. with Fabricator™ (commercially available from Genovis, Lund, Sweden) (1.25 U/μL) in phosphate-buffered saline (PBS) pH 6.6 in a total volume of 10 μL. Fabricator™-digested samples were washed trice with milliQ using an Amicon Ultra-0.5, Ultracel-10 Membrane (Millipore) resulting in a final sample volume of approximately 40 μL. The Fc/2 fragment was analyzed by electrospray ionization time-of-flight (ESI-TOF) on a JEOL AccuTOF. Deconvoluted spectra were obtained using Magtran software.
(§2) A set of Gal-T 1 mutants encoding residues 74-402 of bovine Gal-T 1 were transiently expressed in CHO K1 cells by Evitria (Zurich, Switzerland) which include the Gal-T1 single mutants Y289L (represented by SEQ ID NO: 26), Y289F (represented by SEQ ID NO: 27), Y289M (represented by SEQ ID NO: 28), Y289V (represented by SEQ ID NO: 29), Y289A (represented by SEQ ID NO: 30), and Y289G (represented by SEQ ID NO: 31), and the Gal-T1 double mutants Y289L,C342T (represented by SEQ ID NO: 32), and Y289M,C342T (represented by SEQ ID NO: 33). The mutants were purified using a cation exchange column (Source 15S HR16/10 column, GE Healthcare) as described above. Purified proteins were analyzed by SDS-PAGE. […]

The target in another assay is T3, Gal-T1(Y289L,C342T) (Bos taurus, UniProt P08037, C342T/Y289L).
T3 construct: host or cells: CHO K1
T3 sequence (P08037 74-402 V158I/P187L/I205M/L206V/Y289L/C342T): T2 sequence (P08037 74-402 V158I/P187L/I205M/L206V/Y289M/C342T) with M216L
Kind of assay: Glycosyltransfer to trimmed trastuzumab with Gal-T1(Y289L,C342T) expressed in CHO. Type of assay: biochemical, bovine. To be noted: trimmed trastuzumab 10 mg/mL; UDP derivative 1 mM; enzyme 1.0 mg/mL; pH 8.0, 30° C. overnight. How it is done:
as §1, §2

Another assay addresses T4, β4Gal-T1(Y289L) (Bos taurus, UniProt P08037, Y289L).
T4 sequence (P08037 1-402 Y289L): T1 sequence (P08037 1-402 V158I/P187L/I205M/L206V/Y289L) with I158V, L187P, M205I, V206L
To be noted: GlcNAc acceptor; cited from earlier work.

For another assay, the target named is T5, β4Gal-T1 (Bos taurus, UniProt P08037).
T5 sequence (P08037 1-402): T1 sequence (P08037 1-402 V158I/P187L/I205M/L206V/Y289L) with I158V, L187P, M205I, V206L, L289Y
To be noted: native enzyme; cited from earlier work.

The mark [1] stands for this setting: UDP derivative 4 mM, enzyme 1.4 mg/mL.

The text below walks through data of patent publication US20170009266A1, “PROCESS FOR THE ATTACHMENT OF A GALNAC MOIETY COMPRISING A (HETERO)ARYL GROUP TO A GLCNAC MOIETY, AND PRODUCT OBTAINED THEREBY” (SYNAFFIX B.V., priority 2014, published 2017).

Numbering of substitutions follows the chain as printed.

Take `O=C(NC1C(OP(=O)(O)OP(=O)(O)OCC2OC(n3ccc(=O)[nH]c3=O)C(O)C2O)OC(CO)C(O)C1O)c1cccnc1` (stereo not shown) [Compound 21, 3-pyridylcarbonyl Derivative of UDP-GalNH2]: at β(1,4)-Gal-T1(Y289L) (UDP derivative 2.5 mM, enzyme 0.68 mg/mL), the “product, % of total heavy chain” value is reported as “approximately 5%”.
`[N-]=[N+]=Nc1c(F)c(F)c(C(=O)N[C@H]2[C@@H](OP(=O)(O)OP(=O)(O)OC[C@H]3O[C@@H](n4ccc(=O)[nH]c4=O)[C@H](O)[C@@H]3O)O[C@H](CO)[C@H](O)[C@@H]2O)c(F)c1F` [Compound 23b, 4-azido-2,3,5,6-tetrafluorobenzoyl Derivative of UDP-GalNH2]: the conversion into product result is “approximately 10%” on Gal-T1(Y289M,C342T) and “approximately 70%” at Gal-T1(Y289L,C342T).
Regarding `O=C(NC1C(OP(=O)(O)OP(=O)(O)OCC2OC(n3ccc(=O)[nH]c3=O)C(O)C2O)OC(CO)C(O)C1O)C1CCCC1` (stereo not shown) [Compound 24, Cyclopentylcarbonyl Derivative of UDP-GalNH2], the “product, % of total heavy chain” value at β(1,4)-Gal-T1(Y289L) (setting [1]) was “approximately 90%”.
For the molecule `CC(=O)N[C@H]1[C@@H](OP(=O)(O)OP(=O)(O)OC[C@H]2O[C@@H](n3ccc(=O)[nH]c3=O)[C@H](O)[C@@H]2O)O[C@H](CO)[C@H](O)[C@@H]1O` [UDP-GalNAc], on β4Gal-T1(Y289L), the “efficiency of GalNAc transfer relative to β4Gal-T1/Gal transfer” value is approximately 100%. In addition, the “efficiency of GalNAc transfer compared to Gal transfer from UDP-Gal” value on β4Gal-T1 was 0.1%.
In the case of `O=C(NC1C(OP(=O)(O)OP(=O)(O)OCC2OC(n3ccc(=O)[nH]c3=O)C(O)C2O)OC(CO)C(O)C1O)c1ccco1` (stereo not shown) [Compound 22, Furylcarbonyl Derivative of UDP-GalNH2], the “product, % of total heavy chain” value at β(1,4)-Gal-T1(Y289L) (setting [1]) is reported as “approximately 80%”.
